# Measured values taken from patent publication US20090081249A1 (priority 2007, published 2009).
# Tested on: B/Hong-Kong/36/05, mutant strain, resistant to zanamivir and oseltamivir
# Format: cell-based, influenza B
smiles,measurement,value
"CC(=O)N[C@H]1[C@H]([C@H](O)[C@H](O)CO)OC(C(=O)O)=C[C@@H]1N=C(N)N [Zanamivir, zanamivir]",IC50,210000 nM
